{"source": "PubChem BioAssay AID2060622", "about": "(Molecular Pharmacology Branch, DTP, NCI, 2025);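 also: spheroids exposed to compounds for 7 days before readout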;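 as to viability, T/C: 100% = DMSO vehicle control wells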", "system": "242566-281-R-J2-PDC complex spheroid viability", "assay": "Anticancer human tumor 242566-281-R-J2-PDC patient-derived pancreatic carcinoma cell line growth inhibition [CLK]", "details": "for IC50: curve of first compound; for viability, T/C: stronger effect = lower value", "method_in_brief": "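Patient-derived tumor cells grown as complex spheroids with HUVEC endothelial cells and mesenchymal stem cells, treated with drug combinations. Concentrations descend in half-log steps from near clinical Cmax, or from 10 microM if Cmax unknown.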"}
{"smiles": "CC(C)CC(NC(=O)C(Cc1ccccc1)NC(=O)c1cnccn1)B(O)O", "note": "(configuration not stated) + CNC(=O)c1ccc(Nc2nc(OC3CCCC3)c3c(-c4ccc5nc(C)oc5c4)c[nH]c3n2)c(OC)c1", "values": [{"measurement": "IC50", "setting": "second compound 0.0316 µM", "value": 4.24, "unit": "nM"}, {"measurement": "IC50", "setting": "second compound 0.1 µM", "value": 3.81, "unit": "nM"}, {"measurement": "IC50", "setting": "second compound 0.316 µM", "value": 2.77, "unit": "nM"}, {"measurement": "IC50", "setting": "second compound 1 µM", "value": 1.56, "unit": "nM"}, {"measurement": "IC50", "setting": "second compound 3.16 µM", "value": 1.19, "unit": "nM"}, {"measurement": "IC50", "setting": "second compound 10 µM", "value": 1.15, "unit": "nM"}, {"measurement": "viability, T/C", "setting": "second compound 0.0316 µM, first compound 0.000949 µM", "value": 82.2, "unit": "%"}, {"measurement": "viability, T/C", "setting": "second compound 0.0316 µM, first compound 0.003 µM", "value": 71.1, "unit": "%"}, {"measurement": "viability, T/C", "setting": "second compound 0.0316 µM, first compound 0.00949 µM", "value": 0.73, "unit": "%"}, {"measurement": "viability, T/C", "setting": "second compound 0.0316 µM, first compound 0.03 µM", "value": 0.63, "unit": "%"}, {"measurement": "viability, T/C", "setting": "second compound 0.0316 µM, first compound 0.0949 µM", "value": 0.4, "unit": "%"}, {"measurement": "viability, T/C", "setting": "second compound 0.0316 µM, first compound 0.3 µM", "value": 0.56, "unit": "%"}, {"measurement": "viability, T/C", "setting": "second compound 0.1 µM, first compound 0.000949 µM", "value": 83.3, "unit": "%"}, {"measurement": "viability, T/C", "setting": "second compound 0.1 µM, first compound 0.003 µM", "value": 62.8, "unit": "%"}, {"measurement": "viability, T/C", "setting": "second compound 0.1 µM, first compound 0.00949 µM", "value": 0.92, "unit": "%"}, {"measurement": "viability, T/C", "setting": "second compound 0.1 µM, first compound 0.03 µM", "value": 0.76, "unit": "%"}, {"measurement": "viability, T/C", "setting": "second compound 0.1 µM, first compound 0.0949 µM", "value": 0.35, "unit": "%"}, {"measurement": "viability, T/C", "setting": "second compound 0.1 µM, first compound 0.3 µM", "value": 0.57, "unit": "%"}, {"measurement": "viability, T/C", "setting": "second compound 0.316 µM, first compound 0.000949 µM", "value": 83, "unit": "%"}, {"measurement": "viability, T/C", "setting": "second compound 0.316 µM, first compound 0.003 µM", "value": 47.5, "unit": "%"}, {"measurement": "viability, T/C", "setting": "second compound 0.316 µM, first compound 0.00949 µM", "value": 0.7, "unit": "%"}, {"measurement": "viability, T/C", "setting": "second compound 0.316 µM, first compound 0.03 µM", "value": 0.78, "unit": "%"}, {"measurement": "viability, T/C", "setting": "second compound 0.316 µM, first compound 0.0949 µM", "value": 0.3, "unit": "%"}, {"measurement": "viability, T/C", "setting": "second compound 0.316 µM, first compound 0.3 µM", "value": 0.78, "unit": "%"}, {"measurement": "viability, T/C", "setting": "second compound 1 µM, first compound 0.000949 µM", "value": 73.2, "unit": "%"}, {"measurement": "viability, T/C", "setting": "second compound 1 µM, first compound 0.003 µM", "value": 19.7, "unit": "%"}, {"measurement": "viability, T/C", "setting": "second compound 1 µM, first compound 0.00949 µM", "value": 0.52, "unit": "%"}, {"measurement": "viability, T/C", "setting": "second compound 1 µM, first compound 0.03 µM", "value": 0.28, "unit": "%"}, {"measurement": "viability, T/C", "setting": "second compound 1 µM, first compound 0.0949 µM", "value": 0.45, "unit": "%"}, {"measurement": "viability, T/C", "setting": "second compound 1 µM, first compound 0.3 µM", "value": 0.4, "unit": "%"}, {"measurement": "viability, T/C", "setting": "second compound 3.16 µM, first compound 0.000949 µM", "value": 60.6, "unit": "%"}, {"measurement": "viability, T/C", "setting": "second compound 3.16 µM, first compound 0.003 µM", "value": 6.63, "unit": "%"}, {"measurement": "viability, T/C", "setting": "second compound 3.16 µM, first compound 0.00949 µM", "value": 0.34, "unit": "%"}, {"measurement": "viability, T/C", "setting": "second compound 3.16 µM, first compound 0.03 µM", "value": 0.29, "unit": "%"}, {"measurement": "viability, T/C", "setting": "second compound 3.16 µM, first compound 0.0949 µM", "value": 0.35, "unit": "%"}, {"measurement": "viability, T/C", "setting": "second compound 3.16 µM, first compound 0.3 µM", "value": 0.37, "unit": "%"}, {"measurement": "viability, T/C", "setting": "second compound 10 µM, first compound 0.000949 µM", "value": 59.4, "unit": "%"}, {"measurement": "viability, T/C", "setting": "second compound 10 µM, first compound 0.003 µM", "value": 3.83, "unit": "%"}, {"measurement": "viability, T/C", "setting": "second compound 10 µM, first compound 0.00949 µM", "value": 0.57, "unit": "%"}, {"measurement": "viability, T/C", "setting": "second compound 10 µM, first compound 0.03 µM", "value": 0.53, "unit": "%"}, {"measurement": "viability, T/C", "setting": "second compound 10 µM, first compound 0.0949 µM", "value": 0.43, "unit": "%"}, {"measurement": "viability, T/C", "setting": "second compound 10 µM, first compound 0.3 µM", "value": 0.42, "unit": "%"}]}
